# Results published in US5332736A, “Anti-convulsant aroyl aminoacylpyrroles” (Ortho Pharmaceutical Corporation, priority 1993, dated 1994).
# Test system: toxic extensor seizure
# Assay: maximal electroshock test (MES), mouse; block of the toxic extensor seizure (Swinyard 1952 method)
# Assay type: in vivo
# Details: ip
# Text: The compound of formula (I) are useful as anticonvulsant agents. The anticonvulsant activity of the subject compounds was determine using a standard "maximal electroshock test" (MES). In this test, activity is indicated by a block of the toxic extensor seizure, as described by Swinyard et al in J. Pharmacol,. Exptl. Therap. 106, 319 (1952). A more recent description of current anticonvulsant drug screening is given in Swinyard et al., in Epilepsia 19, 409 (1978).
row,SMILES,ED50 [mg/kg]
1,Cn1cc(C(=O)CN2CCCCC2)cc1C(=O)c1ccc(Cl)cc1 [Example 9-1],24.4
2,Cc1c(C(=O)CN2CCOCC2)c(C)n(C)c1C(=O)c1ccc(Cl)cc1 [Example 9-2],87.6
3,CCN(CC)CC(=O)c1cc(C(=O)c2ccc(Cl)cc2)n(C)c1 [Example 9-4],14.4
4,Cc1c(C(=O)CN2CCCC2)c(C)n(C)c1C(=O)c1ccc(Cl)cc1 [Example 9-5],15.2
5,Cn1cc(C(=O)CN2CCCCC2)cc1C(=O)c1ccccc1Cl [Example 9-10],5.38
6,Cn1cc(C(=O)CN2CCCCCC2)cc1C(=O)c1ccc(Cl)cc1 [Example 9-11],27.5
7,Cn1cc(C(=O)CN2CCCC2)cc1C(=O)c1cccc(Cl)c1 [Example 9-24],16.5
8,Cn1cc(C(=O)CN2CCOCC2)cc1C(=O)c1cccc(Cl)c1 [Example 9-25],37.4
9,O=C(CN1CCOCC1)c1c[nH]c(C(=O)c2ccc(Cl)cc2)c1 [Example 9-27],86.2
10,CCN(CC)CC(=O)c1cc(C(=O)c2ccc(OC)cc2)n(C)c1 [Example 9-29],33
11,Cn1cc(C(=O)CN2CCCC2)cc1C(=O)c1ccc(Cl)cc1 [Example 9-30],49.1
12,CCN(CC)CC(=O)c1c(C)c(C(=O)c2ccc(Cl)cc2)n(C)c1C [Example 9-32],10.3
13,CCN(CC)CC(=O)c1c(C)c(C(=O)c2ccc(Cl)cc2Cl)n(C)c1C [Example 9-34],14.9
